Results from patent US8722868B2, “Glycosyltransferase, novel glycosyltransferase gene, and novel sugar donor compound” (National University Corporation Tokyo University of …, priority 2009, dated 2014).

Target: T1, carnation-derived glycosyltransferase (SEQ ID NO: 1), recombinant crude enzyme liquid (Dianthus caryophyllus, UniProt E3W9M2)
T1 construct: the enzyme comprising 502 amino acid residues was translated, followed by amino acid removal via processing; added initiator methionine (one Met placed before the processed N-terminus SEFDRL...) (N); made in house; host or cells: Escherichia coli JM109 (crude lysate supernatant)
T1 sequence (E3W9M2 31-502): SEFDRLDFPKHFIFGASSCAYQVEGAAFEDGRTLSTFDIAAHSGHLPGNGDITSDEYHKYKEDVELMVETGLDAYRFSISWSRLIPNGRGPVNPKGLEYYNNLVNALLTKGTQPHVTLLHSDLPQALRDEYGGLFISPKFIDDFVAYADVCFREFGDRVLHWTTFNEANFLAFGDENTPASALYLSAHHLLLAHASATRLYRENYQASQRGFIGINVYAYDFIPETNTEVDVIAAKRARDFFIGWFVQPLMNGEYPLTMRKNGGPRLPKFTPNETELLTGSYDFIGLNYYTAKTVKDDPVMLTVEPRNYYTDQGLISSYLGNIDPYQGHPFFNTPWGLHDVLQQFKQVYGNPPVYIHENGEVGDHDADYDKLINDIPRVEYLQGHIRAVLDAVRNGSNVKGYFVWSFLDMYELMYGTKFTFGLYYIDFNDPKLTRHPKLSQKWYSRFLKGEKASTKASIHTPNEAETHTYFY
Test: Glycosyl transfer reaction with carnation-derived glycosyltransferase gene expressed in Escherichia coli
Format: biochemical
Conditions: E. coli crude enzyme liquid, cyanidin-3-O-β-glucoside, pH 5.6, 30° C., 3 hours
Protocol: The PCR product was ligated to a pTrcHis2-TOPO vector (Invitrogen) using a pTrcHis2-TOPO TA expression Kit (Invitrogen), followed by transformation of the Escherichia coli JM109 strain. DNA was extracted from the transformed Escherichia coli and the DNA nucleotide sequence was analyzed in the above manner. Accordingly, the direction of cDNA introduction and the nonoccurrence of a PCR-induced nucleotide substitution were confirmed.
The transformed Escherichia coli was seeded on an LB medium containing […] ampicillin (5 ml), followed by shake culture at 30° C. for 4 hours. Then, IPTG was added thereto to result in 1 mM, followed by shake culture at 16° C. for 2 hours. The cultured Escherichia coli was harvested via centrifugation at 1,800×g. The medium was removed therefrom. A 0.1 M citric acid buffer (pH 5.6) (150 μl) was added thereto, followed by sufficient mixing. The resultant was repeatedly subjected to ultrasonication on ice 3 times for 10 seconds (output: 4; duty: 70) using a ultrasonic disintegrator (UD-201, TOMY SEIKO Co., Ltd., Tokyo, Japan), followed by centrifugation at 20,000×g. The supernatant was transferred to a new centrifuge tube and designated as a crude enzyme liquid. […]

Structure (SMILES): COc1cc(C(=O)OC2OC(CO)C(O)C(O)C2O)ccc1O (stereo not shown)
- Sugar donor function with recombinant carnation-derived glycosyltransferase (reaction product by HPLC): Generation of cyanidin 3,5-O-β-diglucoside was confirmed
